In US10682371B2, “Small molecule conjugates specifically activated in tumor microenvironment for targeting and use thereof” (priority 2014, dated 2020):
Like-named read-outs stand apart in the source and are kept apart here.

What was measured:
[1] = tested on: Human breast cancer MDA-MB435 tumor tissue homogenate; format: biochemical
Method: (§1) At 37 °C, sample compounds were added into 100 μg acidized tumor tissue homogenates (pH6.0) in a concentration of 1 mg/ml.
(§2) At 37 °C, sample compounds were added into 100 μg acidized human breast cancer (MDA-MB435) tumor tissue homogenates (pH6.0) in a concentration of 1 mg/ml.
(§3) […], sample compounds were added into 100 μg acidized tumor tissue homogenates (pH6.0) in a concentration of 1 mg/ml.
as §2
(§4) At 37 °C, sample compounds were added into 100 μg acidized tumor tissue homogenates in a concentration of 1 mg/ml.
(§5) In the experiments, at 37 °C, compounds were added into proteases in 100 μg acidized tumor tissue homogenates in a concentration of 1 mg/ml. […] Meanwhile certain compounds produced in the screening were compared and their activation efficiency in same tissue was analyzed.
(§6) At 37° C., compounds were added into proteases in 100 μg acidized tumor tissue homogenates in a concentration of 1 mg/ml.

[2] = tested on: Human chronic leukemia K562 tumor tissue homogenate; format: biochemical; conditions: Human chronic leukemia K562
Method: as §1, §3, §4, §5, §6

[3] = tested on: Human colon cancer HT-29 tumor tissue homogenate; format: biochemical; conditions: Human colon cancer HT-29
Method: as §1, §3, §4, §5, §6

[4] = tested on: Human liver cancer Hepg2 tumor tissue homogenate; format: biochemical; conditions: Human liver cancer Hepg2
Method: as §1, §3, §4, §5, §6

[5] = tested on: Human non-small cell lung cancer A549 tumor tissue homogenate; format: biochemical; conditions: Human non-small cell lung cancer A549
Method: as §1, §3, §4, §5, §6

[6] = tested on: Human ovarian cancer SK-OV-3 tumor tissue homogenate; format: biochemical; conditions: Human ovarian cancer SK-OV-3
Method: as §1, §3, §4, §5, §6

[7] = tested on: Human pancreatic cancer Panc-1 tumor tissue homogenate; format: biochemical; conditions: Human pancreatic cancer Panc-1
Method: as §1, §3, §4, §5, §6

[8] = tested on: Human prostate cancer PC-3 tumor tissue homogenate; format: biochemical; conditions: Human prostate cancer PC-3
Method: as §1, §3, §4, §5, §6

[9] = tested on: Human renal cancer OS-RC-2 tumor tissue homogenate; format: biochemical; conditions: Human renal cancer OS-RC-2
Method: as §1, §3, §4, §5, §6

[10] = tested on: D121 lung tumor cells; format: in vivo, C57 mice; conditions: for Effect together with PDL1-antibody in promoting immunization and treatment, in words: combination with PDL1-antibody; for Treatment effects on C57 mice, in words: compared to the control group and the other treatment groups
Summary of the method: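 Endpoint is tumor inhibition rate from tumor size (mm^3) after weekly drug treatment for 4 weeks, begun once s.c. tumors from 10^6 live D121 cells reached 0.3-0.4 cm. Before challenge, C57 mice received three i.p. doses of 5×10^5 irradiated D121 cells, two weeks apart, or saline.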

[11] = tested on: tumor CD8+ T cells; format: in vivo, C57 mice; conditions: CD8 positive cells in CD45 positive cells of tumor
Summary of the method: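 Flow cytometric ratio of CD8⁺ to CD45⁺ cells in dissociated tumour. Cell suspensions were labelled with CD45-PE and CD8-FITC for 1 h at room temperature, then washed twice in phosphate buffer with 1% fetal bovine serum.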

[12] = 100 μg acidized homogenate pH6.0, 1 mg/ml, 37°
[13] = D121 immunized C57 mice, drugs weekly for 4 weeks, Day 18 (Example 23)
[14] = Human breast cancer MDA-MB435, 1 mg/ml, acidized homogenate pH6.0, Paclitaxel release by HPLC
[15] = Table 24, acidized human breast cancer (MDA-MB435) tumor tissue homogenates pH6.0, 1 mg/ml, Paclitaxel release by HPLC
[16] = 1 mg/ml, acidized homogenate pH6.0, Paclitaxel release by HPLC
[17] = Table 27, immunized C57 mice, D121 lung tumor, drugs weekly for 4 weeks, Day 18
[18] = Table 27, flow cytometry, immunized C57 mice, D121
[19] = Table 34, 1 mg/ml, acidized homogenate, Docetaxel release by HPLC
[20] = Table 39, immunized C57 mice, D121, drugs 13.2 μmol/kg, PDL1-antibody 5 μg/kg, weekly for 4 weeks, Day 18

| Structure (SMILES) | Effect together with PDL1-antibody in promoting immunization and treatment, in words [10] | Treatment effects on C57 mice, in words [10] | Activation ratio (%) in homogenates from different tumor tissues [1, 14] [%] | activation efficiency (%) [1, 15] [%] | Activation ratio (%) in homogenates from different tumor tissues [2, 16] [%] | Activation ratio (%) in homogenates from different tumor tissues [3, 16] [%] | Activation ratio (%) in homogenates from different tumor tissues [4, 16] [%] | Activation ratio (%) in homogenates from different tumor tissues [5, 16] [%] | Activation ratio (%) in homogenates from different tumor tissues [6, 16] [%] | Activation ratio (%) in homogenates from different tumor tissues [7, 16] [%] | Activation ratio (%) in homogenates from different tumor tissues [8, 16] [%] | Activation ratio (%) in homogenates from different tumor tissues [9, 16] [%] | Size of tumor (mm^3) Day 18 [10, 17] [mm^3] | inhibitory rate on tumor % Day 18 [10, 17] [%] | CD8: CD45 (%) [11, 18] [%] | also measured |
| --- | --- | --- | --- | --- | --- | --- | --- | --- | --- | --- | --- | --- | --- | --- | --- | --- |
| COCCOCC(=O)N[C@H](C)C(=O)N[C@H](C)C(=O)N[C@H](CC(N)=O)C(=O)Nc1ccc(COC(=O)OC(C(=O)OC2C[C@@]3(O)C(OC(=O)c4ccccc4)[C@@H]4C5(OC(C)=O)COC5C[C@H](O)[C@@]4(C)C(=O)[C@H](OC(C)=O)C(=C2C)C3(C)C)[C@@H](NC(=O)c2ccccc2)c2ccccc2)cc1 (stereo in doubt) [S1′, 2-(2-methoxyethoxy) acetylamino-L-Ala-L-Ala-L-Asn-p-amino-benzyl-paclitaxel] | excellent synergistic effect | greatly improved | – | – | – | – | – | – | – | – | – | – | – | – | – | Activation ratio (%) in homogenates from different tumor tissues ([1]; Human breast cancer MDA-MB435, 100 μg acidized homogenate pH6.0, 1 mg/ml, 37°): 92.3%; activation efficiency (%) ([1]; human breast cancer (MDA-MB435) tumor tissue homogenates pH6.0, 100 μg, 1 mg/ml, control compounds vs S1′-S4′): 94.3%; Activation ratio (%) in homogenates from different tumor tissues [2, 12]: 64.7%; Activation ratio (%) in homogenates from different tumor tissues [3, 12]: 79.4%; Activation ratio (%) in homogenates from different tumor tissues [4, 12]: 95.3%; Activation ratio (%) in homogenates from different tumor tissues [5, 12]: 86.4%; Activation ratio (%) in homogenates from different tumor tissues [6, 12]: 88.4%; Activation ratio (%) in homogenates from different tumor tissues [7, 12]: 94.8%; Activation ratio (%) in homogenates from different tumor tissues [8, 12]: 97.3%; Activation ratio (%) in homogenates from different tumor tissues [9, 12]: 86.4%; Size of tumor (mm^3) Day 18 [10, 13]: 237.60 ± 156.42 mm^3; inhibitory rate on tumor % Day 18 [10, 13]: 84.9%; CD8: CD45 (%) ([11]; D121 immunized C57 mice (Example 23)): 19.6% |
| COCCOCC(=O)NCCCC[C@H](NC(=O)COCCOC)C(=O)N[C@H](C)C(=O)N[C@H](C)C(=O)N[C@H](CC(N)=O)C(=O)Nc1ccc(COC(=O)OC(C(=O)OC2C[C@@]3(O)[C@@H](OC(=O)c4ccccc4)[C@H]4[C@](C)(C(=O)[C@H](OC(C)=O)C(=C2C)C3(C)C)[C@@H](O)CC2OC[C@]24OC(C)=O)[C@@H](NC(=O)c2ccccc2)c2ccccc2)cc1 (some centres unmarked) [Compound A1] | excellent synergistic effect | greatly improved | 95.6 | 95.1 | 67.7 | 82.4 | 98.3 | 89.5 | 91.4 | 97.8 | 100.3 | 89.2 | 261.36 ± 178.3 | 84.52 | 20.4 | – |
| COCCOCCOCCOCCOCCOCC(=O)NCCCC[C@H](NC(=O)COCCOCCOCCOCCOCCOC)C(=O)N[C@H](C)C(=O)N[C@H](C)C(=O)N[C@H](CC(N)=O)C(=O)Nc1ccc(COC(=O)OC(C(=O)OC2C[C@@]3(O)[C@@H](OC(=O)c4ccccc4)[C@H]4[C@](C)(C(=O)[C@H](OC(C)=O)C(=C2C)C3(C)C)[C@@H](O)CC2OC[C@]24OC(C)=O)[C@@H](NC(=O)c2ccccc2)c2ccccc2)cc1 (some centres unmarked) [Compound A2] | – | greatly improved | 94.4 | – | 76.3 | 92.9 | 87.6 | 92.4 | 88.6 | 93.8 | 101.4 | 94.5 | 375.727 ± 247.3 | 77.74 | 19.4 | – |
| COCCOCCOCCOCCOCCOCCOCCOCCOCCOCCOCCOCC(=O)NCCCC[C@H](NC(=O)COCCOCCOCCOCCOCCOCCOCCOCCOCCOCCOCCOC)C(=O)N[C@H](C)C(=O)N[C@H](C)C(=O)N[C@H](CC(N)=O)C(=O)Nc1ccc(COC(=O)OC(C(=O)OC2C[C@@]3(O)[C@@H](OC(=O)c4ccccc4)[C@H]4[C@](C)(C(=O)[C@H](OC(C)=O)C(=C2C)C3(C)C)[C@@H](O)CC2OC[C@]24OC(C)=O)[C@@H](NC(=O)c2ccccc2)c2ccccc2)cc1 (some centres unmarked) [Compound A3] | – | greatly improved | 93.4 | 94.5 | 73.2 | 94.6 | 86.5 | 84.4 | 82.8 | 94.5 | 99.3 | 89.4 | 360.393 ± 312.7 | 78.65 | 17.3 | – |
| COCCOCC(=O)NCCCC[C@H](NC(=O)COCCOC)C(=O)N[C@H](C)C(=O)N[C@H](C)C(=O)N[C@H](CC(N)=O)C(=O)Nc1ccc(COC(=O)OC(C(=O)OC2C[C@@]3(O)[C@@H](OC(=O)c4ccccc4)[C@H]4[C@](C)(C(=O)[C@H](O)C(=C2C)C3(C)C)[C@@H](O)CC2OC[C@]24OC(C)=O)[C@@H](NC(=O)OC(C)(C)C)c2ccccc2)cc1 (some centres unmarked) [Compound B1] | excellent synergistic effect | greatly improved | – | – | – | – | – | – | – | – | – | – | – | – | – | activation efficiency (%) ([1]; Table 34, Human breast cancer MDA-MB435, 1 mg/ml, acidized homogenate, Docetaxel release by HPLC): 93.5%; activation efficiency (%) [2, 19]: 69.0%; activation efficiency (%) [3, 19]: 83.9%; activation efficiency (%) [4, 19]: 76.3%; activation efficiency (%) [5, 19]: 91.2%; activation efficiency (%) [6, 19]: 93.1%; activation efficiency (%) [7, 19]: 86.9%; activation efficiency (%) [8, 19]: 76.1%; activation efficiency (%) [9, 19]: 90.9%; Size of tumor (mm^3) Day 18 [10, 20]: 271.36 ± 157.56 mm^3; inhibitory rate on tumor % Day 18 [10, 20]: 83.25%; CD8: CD45 (%) ([11]; Table 39, flow cytometry, drugs 13.2 μmol/kg, PDL1-antibody 5 μg/kg): 18.9% |
